Read-outs that look alike come from different tables or passages of the source.
Experiments:
[1] = system: Beet Armyworm (Spodoptera exigua, LAPHEG); test: Bioassay on Beet Armyworm (BAW), 128-well diet tray assay; format: in vivo; settings: for mortality at 50 µg/cm2: 168 h, 50 μg/cm^2 on artificial diet, second instar larvae, five to seven days, 25° C., read-out: BAW % Control (or Mortality) rating
Method: (§1) Example A: Bioassays on Beet Armyworm (Spodoptera Exigua, LAPHEG) (“BAW”), Corn Earworm (Helicoverpa zea, HELIZE) (“CEW”), and Cabbage Looper (Trichoplusia ni, TRIPNI) (“CL”)
(§2) Certain molecules disclosed in this document were tested against BAW, CEW, and CL using procedures described in the following examples. In the reporting of the results, the “BAW, CEW, & CL Rating Table” was used (See Table Section).
Bioassays on BAW were conducted using a 128-well diet tray assay. One to five second instar BAW larvae were placed in each well (3 mL) of the diet tray that had been previously filled with 1 mL of artificial diet to which 50 μg/cm^2 of the test molecule (dissolved in 50 μL of 90:10 acetone-water mixture) had been applied (to each of eight wells) and then allowed to dry. Trays were covered with a clear self-adhesive cover and held at 25° C., 14:10 light-dark for five to seven days. Percent mortality was recorded for the larvae in each well; activity in the eight wells was then averaged. The results are indicated in the table entitled “Table ABC: Biological Results” (See Table Section).
(§3) Bioassays on BAW and CL were conducted according to the procedures outlined in Example A: Bioassays on Beet Armyworm (“BAW”) and Cabbage Looper (“CL”) using the indicated concentrations.

[2] = system: Cabbage Looper (Trichoplusia ni, TRIPNI); test: Bioassay on Cabbage Looper (CL), 128-well diet tray assay; format: in vivo; settings: for mortality at 50 µg/cm2: 168 h, 50 μg/cm^2 on artificial diet, second instar larvae, five to seven days, 25° C., read-out: CL % Control (or Mortality) rating
Method: as §1, §2
Bioassays on CL were conducted using a 128-well diet tray assay. One to five second instar CL larvae were placed in each well (3 mL) of the diet tray that had been previously filled with 1 mL of artificial diet to which 50 μg/cm^2 of the test molecule (dissolved in 50 μL of 90:10 acetone-water mixture) had been applied (to each of eight wells) and then allowed to dry. Trays were covered with a clear self-adhesive cover and held at 25° C., 14:10 light-dark for five to seven days. Percent mortality was recorded for the larvae in each well; activity in the eight wells was then averaged. The results are indicated in the table entitled “Table ABC: Biological Results” (See Table Section).
as §3

| SMILES | mortality at 50 µg/cm2 [1] [%] | mortality at 50 µg/cm2 [2] [%] | also measured |
| --- | --- | --- | --- |
| CCC(F)(F)C(/C=C(\F)c1ccc(C(=O)N[C@H](C)CS(=O)(=O)CC(F)(F)F)c(C(F)(F)F)c1)c1cc(Cl)c(Cl)c(Cl)c1 (stereo partly drawn) [F38, 4-((Z)-1,4,4-Trifluoro-3-(3,4,5-trichlorophenyl)hex-1-en-1-yl)-N—((R)-1-((2,2,2-trifluoroethyl)sulfonyl)propan-2-yl)-2-(trifluoromethyl)benzamide] | 50 to 100 | 50 to 100 |  |
| Cc1cc(/C(F)=C/C(c2cc(Cl)c(Cl)c(Cl)c2)C(F)(F)F)ccc1C(=O)N[C@H](C)CS(=O)(=O)CC(F)(F)F (stereo partly drawn) [F6, 2-Methyl-4-((Z)-1,4,4,4-tetrafluoro-3-(3,4,5-trichlorophenyl)but-1-en-1-yl)-N—((R)-1-((2,2,2-trifluoroethyl)sulfonyl)propan-2-yl)benzamide] | 50 to 100 | 50 to 100 |  |
| C[C@H](CSCC(F)(F)F)NC(=O)c1ccc(/C(F)=C/C(c2ccc(Br)c(Br)c2)C(F)(F)F)cc1C(F)(F)F (some centres unmarked) [F62] | 50 to 100 | 50 to 100 |  |
| C[C@H](CS(=O)(=O)CC(F)(F)F)NC(=O)c1ccc(/C(F)=C/C(c2cc(F)c(F)c(F)c2)C(F)(F)F)cc1C(F)(F)F (stereo partly drawn) [F133, 4-((Z)-1,4,4,4-Tetrafluoro-3-(3,4,5-trifluorophenyl)but-1-en-1-yl)-N—((R)-1-((2,2,2-trifluoroethyl)sulfonyl)propan-2-yl)-2-(trifluoromethyl)benzamide] | 50 to 100 | 50 to 100 |  |
| Cc1cc(C(/C=C(\F)c2ccc(C(=O)N[C@H](C)CS(=O)(=O)CC(F)(F)F)c(C(F)(F)F)c2)C(F)(F)F)ccc1Cl (stereo partly drawn) [PF8, 4-((Z)-3-(4-Chloro-3-methylphenyl)-1,4,4,4-tetrafluorobut-1-en-1-yl)-N—((R)-1-((2,2,2-trifluoroethyl)sulfonyl)propan-2-yl)-2-(trifluoromethyl)benzamide] | 50 to 100 | 50 to 100 |  |
| C[C@H](CSCC(F)(F)F)NC(=O)c1ccc(/C(F)=C/C(c2ccc(Cl)c(Cl)c2)C(C)(F)F)cc1C(F)(F)F (stereo partly drawn) [F57, 4-((Z)-3-(3,4-Dichlorophenyl)-1,4,4-trifluoropent-1-en-1-yl)-N—((R)-1-((2,2,2-trifluoroethyl)thio)propan-2-yl)-2-(trifluoromethyl)benzamide] | 50 to 100 | 50 to 100 |  |
| C[C@H](CS(=O)(=O)CCF)NC(=O)c1ccc(/C(F)=C/C(c2cc(Cl)c(Cl)c(Cl)c2)C(F)(F)F)cc1C(F)(F)F (stereo partly drawn) [F85, N—((R)-1-((2-Fluoroethyl)sulfonyl)propan-2-yl)-4-((Z)-1,4,4,4-tetrafluoro-3-(3,4,5-trichlorophenyl)but-1-en-1-yl)-2-(trifluoromethyl)benzamide] | 50 to 100 | 50 to 100 |  |
| C[C@H](CS(=O)(=O)CC(F)(F)F)NC(=O)c1ccc(/C(F)=C/C(c2cc(F)c(F)c(Br)c2)C(F)(F)F)cc1C(F)(F)F (stereo partly drawn) [F94, 4-((Z)-3-(3-Bromo-4,5-difluorophenyl)-1,4,4,4-tetrafluorobut-1-en-1-yl)-N—((R)-1-((2,2,2-trifluoroethyl)sulfonyl)propan-2-yl)-2-(trifluoromethyl)benzamide] | 50 to 100 | 50 to 100 |  |
| C[C@H](CSCC(F)(F)F)NC(=O)c1ccc(/C(F)=C/C(c2cc(Cl)cc(Br)c2)C(F)(F)F)cc1C(F)(F)F (stereo partly drawn) [F64, 4-((Z)-3-(3-Bromo-5-chlorophenyl)-1,4,4,4-tetrafluorobut-1-en-1-yl)-N—((R)-1-((2,2,2-trifluoroethyl)thio)propan-2-yl)-2-(trifluoromethyl)benzamide] | 50 to 100 | 50 to 100 |  |
| CCSC[C@@H](C)NC(=O)c1ccc(/C(F)=C/C(c2cc(Cl)c(Br)c(Cl)c2)C(F)(F)F)cc1C(F)(F)F (some centres unmarked) [F48] | 50 to 100 | 50 to 100 |  |
| C[C@H](CSCC(F)(F)F)NC(=O)c1ccc(/C(F)=C/C(c2cc(Cl)c(Cl)c(Cl)c2)C(F)(F)F)cc1Cl (stereo partly drawn) [F10, 2-Chloro-4-((Z)-1,4,4,4-tetrafluoro-3-(3,4,5-trichlorophenyl)but-1-en-1-yl)-N—((R)-1-((2,2,2-trifluoroethyl)thio)propan-2-yl)benzamide] | 50 to 100 | 50 to 100 | mortality at 0.05 µg/cm2 ([1]; 0.05 μg/cm^2, Table CD2 comparative data, read-out: Percent control (or mortality) BAW): 0%; mortality at 0.5 µg/cm2 ([1]; 0.5 μg/cm^2, Table CD2 comparative data, read-out: Percent control (or mortality) BAW): 100%; mortality at 5 µg/cm2 ([1]; 5 μg/cm^2, Table CD2 comparative data, read-out: Percent control (or mortality) BAW): 100%; mortality at 0.05 µg/cm2 ([2]; 0.05 μg/cm^2, Table CD2 comparative data, read-out: Percent control (or mortality) CL): 6%; mortality at 0.5 µg/cm2 ([2]; 0.5 μg/cm^2, Table CD2 comparative data, read-out: Percent control (or mortality) CL): 100%; mortality at 5 µg/cm2 ([2]; 5 μg/cm^2, Table CD2 comparative data, read-out: Percent control (or mortality) CL): 100% |
| C[C@H](C[S+]([O-])CC(C)(F)F)NC(=O)c1ccc(/C(F)=C/C(c2cc(Cl)c(Cl)c(Cl)c2)C(F)(F)F)cc1C(F)(F)F (stereo partly drawn) [F96, N-((2R)-1-((2,2-Difluoropropyl)sulfinyl)propan-2-yl)-4-((Z)-1,4,4,4-tetrafluoro-3-(3,4,5-trichlorophenyl)but-1-en-1-yl)-2-(trifluoromethyl)benzamide] | 50 to 100 | 50 to 100 |  |
| C[C@H](CS(=O)(=O)CC(F)(F)F)NC(=O)c1ccc(/C(F)=C/C(c2cc(Cl)c(Cl)c(Cl)c2)C(C)(F)F)cc1C(F)(F)F (stereo partly drawn) [F16, 4-((Z)-1,4,4-Trifluoro-3-(3,4,5-trichlorophenyl)pent-1-en-1-yl)-N—((R)-1-((2,2,2-trifluoroethyl)sulfonyl)propan-2-yl)-2-(trifluoromethyl)benzamide] | 50 to 100 | 50 to 100 | mortality at 0.05 µg/cm2 ([1]; 0.05 μg/cm^2, read-out: BAW Percent control (or mortality)): 100%; mortality at 0.5 µg/cm2 ([1]; 0.5 μg/cm^2, read-out: BAW Percent control (or mortality)): 100%; mortality at 5 µg/cm2 ([1]; 5 μg/cm^2, read-out: BAW Percent control (or mortality)): 100%; mortality at 0.05 µg/cm2 ([2]; 0.05 μg/cm^2, read-out: CL Percent control (or mortality)): 100%; mortality at 0.5 µg/cm2 ([2]; 0.5 μg/cm^2, read-out: CL Percent control (or mortality)): 100%; mortality at 5 µg/cm2 ([2]; 5 μg/cm^2, read-out: CL Percent control (or mortality)): 100% |
| C[C@H](CS(=O)(=O)CC(F)(F)F)NC(=O)c1ccc(/C(F)=C/[C@@H](c2cc(Cl)c(Cl)c(Cl)c2)C(F)(F)F)cc1C(F)(F)F [F136, 4-((S,Z)-1,4,4,4-tetrafluoro-3-(3,4,5-trichlorophenyl)but-1-en-1-yl)-N—((R)-1-((2,2,2-trifluoroethyl)sulfonyl)propan-2-yl)-2-(trifluoromethyl)benzamide] | 50 to 100 | 50 to 100 |  |
| CSC(C)CNC(=O)c1ccc(/C(F)=C/C(c2cc(Cl)c(Cl)c(Cl)c2)C(F)(F)F)cc1C(F)(F)F (centres unmarked) [F89, (Z)—N-(2-(Methylthio)propyl)-4-(1,4,4,4-tetrafluoro-3-(3,4,5-trichlorophenyl)but-1-en-1-yl)-2-(trifluoromethyl)benzamide] | 50 to 100 | 50 to 100 |  |
| C[C@H](CS(=O)(=O)CC(F)(F)F)NC(=O)c1ccc(/C(F)=C/C(c2ccc(Cl)c(Br)c2)C(F)(F)F)cc1C(F)(F)F (stereo partly drawn) [F79, 4-((Z)-3-(3-Bromo-4-chlorophenyl)-1,4,4,4-tetrafluorobut-1-en-1-yl)-N—((R)-1-((2,2,2-trifluoroethyl)sulfonyl)propan-2-yl)-2-(trifluoromethyl)benzamide] | 50 to 100 | 50 to 100 |  |
| C[C@H](C[S+]([O-])CC(F)F)NC(=O)c1ccc(/C(F)=C/C(c2cc(Cl)c(Cl)c(Cl)c2)C(F)(F)F)cc1C(F)(F)F (stereo partly drawn) [F86, N-((2R)-1-((2,2-Difluoroethyl)sulfinyl)propan-2-yl)-4-((Z)-1,4,4,4-tetrafluoro-3-(3,4,5-trichlorophenyl)but-1-en-1-yl)-2-(trifluoromethyl)benzamide] | 50 to 100 | 50 to 100 |  |
| CCC(F)(F)C(/C=C(\F)c1ccc(C(=O)N[C@H](C)CSCC(F)(F)F)c(C(F)(F)F)c1)c1cc(Cl)c(Cl)c(Cl)c1 (stereo partly drawn) [F39, 4-((Z)-1,4,4-Trifluoro-3-(3,4,5-trichlorophenyl)hex-1-en-1-yl)-N—((R)-1-((2,2,2-trifluoroethyl)thio)propan-2-yl)-2-(trifluoromethyl)benzamide] | 50 to 100 | 50 to 100 |  |
| C[C@H](CS(=O)(=O)CC(F)(F)F)NC(=O)c1ccc(/C(F)=C/C(c2cc(Cl)cc(C(F)(F)F)c2)C(F)(F)F)cc1C(F)(F)F (stereo partly drawn) [F81, 4-((Z)-3-(3-Chloro-5-(trifluoromethyl)phenyl)-1,4,4,4-tetrafluorobut-1-en-1-yl)-N—((R)-1-((2,2,2-trifluoroethyl)sulfonyl)propan-2-yl)-2-(trifluoromethyl)benzamide] | 50 to 100 | 50 to 100 |  |
